Data taken from article PMC9516332 (Frontiers in Oncology, 2022).
Like-named read-outs stand apart in the source and are kept apart here.

Legend:
134 cancer cell lines [1] = tested on: 134 cancer cell lines
[2] = biological target: panel of 255 wild-type kinases (Homo sapiens, UniProt P31749); test: Kinase panel profiling at 1 µmol/L (MSA or IMAP), percentage inhibition; assay type: biochemical; details: AKT1 kinase assay; 1 µmol/L single concentration; read-out: %-inhibition AKT1
[3] = biological target: T1, panel of 255 wild-type kinases (Homo sapiens, UniProt Q96PF2); test: as above; assay type: biochemical; details: kinase TSSK2; 1 µmol/L single concentration; read-out: %-inhibition at 1 µmol/L, TSSK2
T1 sequence (Q96PF2 1-358): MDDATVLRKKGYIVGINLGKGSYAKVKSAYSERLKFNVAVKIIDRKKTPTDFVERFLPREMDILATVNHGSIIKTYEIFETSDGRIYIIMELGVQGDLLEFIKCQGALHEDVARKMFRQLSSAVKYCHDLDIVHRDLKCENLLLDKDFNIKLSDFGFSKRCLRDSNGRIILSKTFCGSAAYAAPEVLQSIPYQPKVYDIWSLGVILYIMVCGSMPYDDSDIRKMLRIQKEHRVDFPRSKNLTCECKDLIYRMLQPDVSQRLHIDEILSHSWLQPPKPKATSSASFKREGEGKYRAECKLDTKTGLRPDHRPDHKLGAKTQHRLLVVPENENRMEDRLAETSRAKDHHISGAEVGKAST

[4] = biological target: panel of 255 wild-type kinases (Homo sapiens, UniProt P08581); test: as above; assay type: biochemical; details: MET; 1 µmol/L single concentration
[5] = biological target: panel of 255 wild-type kinases (Homo sapiens, UniProt Q9Y463); test: as above; assay type: biochemical; details: kinase DYRK1B; 1 µmol/L single concentration; read-out: %-inhibition at 1 µmol/L, DYRK1B
AP-1060 (ETV6-NTRK3) = test: Cell viability assay; details: read-out: IC50 in cell proliferation assay
134 cancer cell lines [6] = test: Cell viability assay (ATPlite, 72 hours), IC50 on cancer cell line panel

IC50 (134 cancer cell lines [1]): 6.88 µM
inhibition at 1 µM [2]: -9%
inhibition at 1 µM [3]: -0.922%
inhibition at 1 µM [4]: 5.33%
inhibition at 1 µM [5]: -1.89%
IC50 (134 cancer cell lines [6]; HEC-6, read-out: IC50 in cell proliferation assay, HEC-6 cell line (EGFR p.A289V)): 14.8 µM
IC50 (134 cancer cell lines [6]; Homo sapiens, 769-P, read-out: IC50 in cell proliferation assay, cell line 769-P): 20.2 µM
IC50 (134 cancer cell lines [6]; Homo sapiens, 786-0, read-out: IC50 in cell proliferation assay, cell line 786-O): 21.3 µM
IC50 (134 cancer cell lines [6]; Homo sapiens, A 172, read-out: IC50 in cell proliferation assay, cell line A-172): 17.4 µM
IC50 (134 cancer cell lines [6]; Homo sapiens, A204, read-out: IC50 in cell proliferation assay, cell line A-204): 11.4 µM
IC50 (134 cancer cell lines [6]; Homo sapiens, A498, read-out: IC50 in cell proliferation assay, cell line A-498): 20.4 µM
IC50 (134 cancer cell lines [6]; Homo sapiens, A549, read-out: IC50 in cell proliferation assay, cell line A-549): 25.7 µM
IC50 (134 cancer cell lines [6]; Homo sapiens, A704, read-out: IC50 in cell proliferation assay, cell line A-704): > 31.6 µM
IC50 (134 cancer cell lines [6]; Homo sapiens, A-375, read-out: IC50 in cell proliferation assay, cell line A-375 (BRAF p.V600E)): 11.3 µM
IC50 (134 cancer cell lines [6]; Homo sapiens, A-427, read-out: IC50 in cell proliferation assay, cell line A-427): 22.2 µM
IC50 (134 cancer cell lines [6]; Homo sapiens, ACHN, read-out: IC50 in cell proliferation assay, cell line ACHN): 13.9 µM
IC50 (134 cancer cell lines [6]; Homo sapiens, AN3-CA, read-out: IC50 in cell proliferation assay, cell line AN3-CA (FGFR2 p.N549K)): 24.5 µM
IC50 (134 cancer cell lines [6]; Homo sapiens, ASPC1, read-out: IC50 in cell proliferation assay, cell line AsPC-1): > 31.6 µM
IC50 (134 cancer cell lines [6]; Homo sapiens, AU565, read-out: IC50 in cell proliferation assay, cell line AU565 (ERBB2 amplification)): 0.125 µM
IC50 (134 cancer cell lines [6]; Homo sapiens, BT-20, read-out: IC50 in cell proliferation assay, cell line BT-20): 28.8 µM
IC50 (134 cancer cell lines [6]; Homo sapiens, BT-474, read-out: IC50 in cell proliferation assay, cell line BT-474 (ERBB2 amplification)): 0.029 µM
IC50 (134 cancer cell lines [6]; Homo sapiens, BT-549, read-out: IC50 in cell proliferation assay, cell line BT-549): 15.9 µM
IC50 (134 cancer cell lines [6]; Homo sapiens, BXPC-3, read-out: IC50 in cell proliferation assay, cell line BxPC-3): 12.6 µM
IC50 (134 cancer cell lines [6]; Homo sapiens, C-33-A, read-out: IC50 in cell proliferation assay, cell line C-33 A): 0.412 µM
IC50 (134 cancer cell lines [6]; Homo sapiens, CAL-27, read-out: IC50 in cell proliferation assay, cell line CAL-27): 13.7 µM
IC50 (134 cancer cell lines [6]; Homo sapiens, CCF-STTG1, read-out: IC50 in cell proliferation assay, cell line CCF-STTG1): > 31.6 µM
IC50 (134 cancer cell lines [6]; Homo sapiens, CCRF-CEM, read-out: IC50 in cell proliferation assay, cell line CCRF-CEM): 17.7 µM
IC50 (134 cancer cell lines [6]; Homo sapiens, COLO 205, read-out: IC50 in cell proliferation assay, cell line COLO 205 (BRAF p.V600E)): 22.2 µM
IC50 (134 cancer cell lines [6]; Homo sapiens, COLO-829, read-out: IC50 in cell proliferation assay, cell line COLO 829 (BRAF p.V600E)): 20.6 µM
IC50 (134 cancer cell lines [6]; Homo sapiens, DLD-1, read-out: IC50 in cell proliferation assay, cell line DLD-1): 23.2 µM
IC50 (134 cancer cell lines [6]; Homo sapiens, DU-4475, read-out: IC50 in cell proliferation assay, cell line DU4475 (BRAF p.V600E)): 10.7 µM
IC50 (134 cancer cell lines [6]; Homo sapiens, Daoy, read-out: IC50 in cell proliferation assay, cell line Daoy): 30.2 µM
IC50 (134 cancer cell lines [6]; Homo sapiens, DoTc2-4510, read-out: IC50 in cell proliferation assay, cell line DoTc2 4510): 5.59 µM
IC50 (134 cancer cell lines [6]; Homo sapiens, EOL1, read-out: IC50 in cell proliferation assay, cell line EoL-1 (FIP1L1-PDGFRA)): 4.24 µM
IC50 (134 cancer cell lines [6]; Homo sapiens, FaDu, read-out: IC50 in cell proliferation assay, cell line FaDu): 14.1 µM
IC50 (134 cancer cell lines [6]; Homo sapiens, G-361, read-out: IC50 in cell proliferation assay, cell line G-361 (BRAF p.V600E)): 13.5 µM
IC50 (134 cancer cell lines [6]; Homo sapiens, HCC827, read-out: IC50 in cell proliferation assay, cell line HCC827 (EGFR exon19del)): 2.38 µM
IC50 (134 cancer cell lines [6]; Homo sapiens, HCC4006, read-out: IC50 in cell proliferation assay, cell line HCC4006 (EGFR exon19del)): 6.56 µM
IC50 (134 cancer cell lines [6]; Homo sapiens, HCT-15, read-out: IC50 in cell proliferation assay, cell line HCT 15): 16.7 µM
IC50 (134 cancer cell lines [6]; Homo sapiens, HCT-116, read-out: IC50 in cell proliferation assay, cell line HCT 116): 21.9 µM
IC50 (134 cancer cell lines [6]; Homo sapiens, HEC-1, read-out: IC50 in cell proliferation assay, HEC-1 cell line): 13.9 µM
IC50 (134 cancer cell lines [6]; Homo sapiens, HEC-1B, read-out: IC50 in cell proliferation assay, HEC-1-B cell line (EGFR p.A864V)): 1.62 µM
IC50 (134 cancer cell lines [6]; Homo sapiens, HL-60, read-out: IC50 in cell proliferation assay, HL-60 cell line): 16.9 µM
IC50 (134 cancer cell lines [6]; Homo sapiens, HT, read-out: IC50 in cell proliferation assay, HT cell line): 29.9 µM
IC50 (134 cancer cell lines [6]; Homo sapiens, HT-1080, read-out: IC50 in cell proliferation assay, HT-1080 cell line): 17.2 µM
IC50 (134 cancer cell lines [6]; Homo sapiens, Hs746T, read-out: IC50 in cell proliferation assay, Hs 746.T cell line (MET exon14skip + amplification)): 12.4 µM
IC50 (134 cancer cell lines [6]; Homo sapiens, Hs-578T, read-out: IC50 in cell proliferation assay, Hs 578T cell line): 24.1 µM
IC50 (134 cancer cell lines [6]; Homo sapiens, HuTu80, read-out: IC50 in cell proliferation assay, HuTu 80 cell line): 0.623 µM
IC50 (134 cancer cell lines [6]; Homo sapiens, J82, read-out: IC50 in cell proliferation assay, J82 cell line): > 31.6 µM
IC50 (134 cancer cell lines [6]; Homo sapiens, Jurkat E6.1, read-out: IC50 in cell proliferation assay, Jurkat E6.1 cell line): 14.7 µM
IC50 (134 cancer cell lines [6]; Homo sapiens, K562, read-out: IC50 in cell proliferation assay, K-562 cell line): 8.53 µM
IC50 (134 cancer cell lines [6]; Homo sapiens, KATO III, read-out: IC50 in cell proliferation assay, KATO III cell line (FGFR2 amplification)): 17.9 µM
IC50 (134 cancer cell lines [6]; Homo sapiens, KG-1, read-out: IC50 in cell proliferation assay, KG-1 cell line (FGFR1OP2-FGFR1)): 16.2 µM
IC50 (134 cancer cell lines [6]; Homo sapiens, KLE, read-out: IC50 in cell proliferation assay, KLE cell line): 4.74 µM
IC50 (134 cancer cell lines [6]; Homo sapiens, KMS-11, read-out: IC50 in cell proliferation assay, KMS-11 cell line (FGFR3 p.Y373C)): 18.2 µM
IC50 (134 cancer cell lines [6]; Homo sapiens, KU812, read-out: IC50 in cell proliferation assay, Ku812 cell line): 22.6 µM
IC50 (134 cancer cell lines [6]; Homo sapiens, Kasumi 1, read-out: IC50 in cell proliferation assay, Kasumi-1 cell line (KIT p.N822K)): 24.3 µM
IC50 (134 cancer cell lines [6]; Homo sapiens, LC-2-ad, read-out: IC50 in cell proliferation assay, LC-2/ad cell line (CCDC6-RET)): 22.5 µM
IC50 (134 cancer cell lines [6]; Homo sapiens, LNCaP-Clone-FGC, read-out: IC50 in cell proliferation assay, LNCaP clone FGC cell line): 21.8 µM
IC50 (134 cancer cell lines [6]; Homo sapiens, LS174T, read-out: IC50 in cell proliferation assay, LS174T cell line): 20.3 µM
IC50 (134 cancer cell lines [6]; Homo sapiens, LS-411N, read-out: IC50 in cell proliferation assay, LS411N cell line (BRAF p.V600E)): 21.4 µM
IC50 (134 cancer cell lines [6]; Homo sapiens, LoVo, read-out: IC50 in cell proliferation assay, LoVo cell line): 25.7 µM
IC50 (134 cancer cell lines [6]; Homo sapiens, MCF7, read-out: IC50 in cell proliferation assay, MCF-7 cell line): 30.5 µM
IC50 (134 cancer cell lines [6]; Homo sapiens, MDA-MB-231, read-out: IC50 in cell proliferation assay, MDA-MB-231 cell line): 22.5 µM
IC50 (134 cancer cell lines [6]; Homo sapiens, MDA-MB-453, read-out: IC50 in cell proliferation assay, MDA-MB-453 cell line): 5.93 µM
IC50 (134 cancer cell lines [6]; Homo sapiens, MDA-MB-468, read-out: IC50 in cell proliferation assay, MDA-MB-468 cell line): 8.88 µM
IC50 (134 cancer cell lines [6]; Homo sapiens, MG-63, read-out: IC50 in cell proliferation assay, MG-63 cell line): 29.4 µM
IC50 (134 cancer cell lines [6]; Homo sapiens, MIA PaCa-2, read-out: IC50 in cell proliferation assay, MIA PaCa-2 cell line): 18.3 µM
SMILES: Cc1cc(Nc2ncnc3ccc(NC4=NC(C)(C)CO4)cc23)ccc1Oc1ccn2ncnc2c1 [tucatinib]
IC50 (AP-1060 (ETV6-NTRK3)): 29.1 µM
